According to US5358947A, “Angiotensin II receptor blocking 2,3-substituted pyrazolo[1,5-a]-1,3,5-triazin-4(3H)-ones” (American Cyanamid Company, priority 1993, dated 1994):
Where “and” joins values, the source holds several entries; their conditions need not be identical. Identical values can stand only once.

Test system: ANGIOTENSIN II (AII) VASOPRESSOR RESPONSE
Assay: AII Challenge: angiotensin II (AII) vasopressor response in conscious rats
Format: in vivo
Set-up: Response After AII / Change / Average Change: unit not given here
Conditions: 10 mg/kg i.v.; for Change / Response After AII / Control Before AII: individual rat; for Control Before AII: in mmHg (unit assumed); for % Inhibition / Average Change: n = 2
Outline: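 Conscious male Okamoto-Aoki SHR (16-20 weeks, ~330 g), aorta/vena cava cannulated, challenged with AII 0.05 and 0.1 ug/kg i.v. before and at 30-300 min after compound dosed i.v., i.p. or orally. Systolic pressure rise expressed relative to each rat's predose response (100%).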

[1] = AII 0.05 mcg/kg, 30 min post dose
[2] = AII 0.05 mcg/kg, 30 min post dose, listed as Ex. 11
[3] = AII 0.05 mcg/kg, 60 min post dose, listed as Ex. 11
[4] = AII 0.05 mcg/kg, 60 min post dose
[5] = AII 0.05 mcg/kg, 90 min post dose
[6] = AII 0.05 mcg/kg, 90 min post dose, listed as Ex. 11
[7] = AII 0.05 mcg/kg, 120 min post dose
[8] = AII 0.05 mcg/kg, 120 min post dose, listed as Ex. 11
[9] = AII 0.05 mcg/kg, 180 min post dose
[10] = AII 0.05 mcg/kg, 180 min post dose, listed as Ex. 11
[11] = AII 0.05 mcg/kg, 240 min post dose
[12] = AII 0.05 mcg/kg, 240 min post dose, listed as Ex. 11
[13] = AII 0.05 mcg/kg, 300 min post dose
[14] = AII 0.05 mcg/kg, 300 min post dose, listed as Ex. 11
[15] = AII 0.1 mcg/kg, 30 min post dose
[16] = AII 0.1 mcg/kg, 30 min post dose, listed as Ex. 11
[17] = AII 0.1 mcg/kg, 60 min post dose
[18] = AII 0.1 mcg/kg, 90 min post dose
[19] = AII 0.1 mcg/kg, 90 min post dose, listed as Ex. 11
[20] = AII 0.1 mcg/kg, 120 min post dose
[21] = AII 0.1 mcg/kg, 120 min post dose, listed as Ex. 11
[22] = AII 0.1 mcg/kg, 180 min post dose
[23] = AII 0.1 mcg/kg, 240 min post dose
[24] = AII 0.1 mcg/kg, 240 min post dose, listed as Ex. 11
[25] = AII 0.1 mcg/kg, 300 min post dose
[26] = AII 0.1 mcg/kg, 300 min post dose, listed as Ex. 11

**Q.** With CCCCc1nc2cc(-c3ccco3)nn2c(=O)n1Cc1ccc(-c2ccccc2-c2nnn[nH]2)cc1 [Example 11, 2-Butyl-7-(2-furanyl)-3-[[2'-(1H-tetrazol-5-yl)[1,1'-biphenyl]-4-yl]methyl]pyrazolo[1,5-a]-1,3,5-triazin-4(3H)-one] as the molecule, how does the Change [1] read?
**A.** The Change was 0.

**Q.** And the “Response After AII” value [1]?
**A.** The value was 200.

**Q.** What about the “Response After AII” value [2] of the same molecule?
**A.** Its value is 205.

**Q.** What about the “Control Before AII” value [2] of the same molecule?
**A.** The value was 200 and 205.

**Q.** And the “% Inhibition” value [1]?
**A.** Its value is 100%.

**Q.** What about the “Average Change” value [1] of the same molecule?
**A.** The value was 0.

**Q.** What about the Change [3] of the same molecule?
**A.** The Change was 13 and 5.

**Q.** And the “Response After AII” value [3]?
**A.** Its value is 198 and 200.

**Q.** And the “Control Before AII” value [3]?
**A.** Its value is 185 and 195.

**Q.** What about the “% Inhibition” value [4] of the same molecule?
**A.** The value was 76%.

**Q.** What about the “Average Change” value [4] of the same molecule?
**A.** The value was 9.

**Q.** What about the “Response After AII” value [5] of the same molecule?
**A.** Its value is 200.

**Q.** What about the Change [6] of the same molecule?
**A.** The Change was 10 and 15.

**Q.** What about the “Control Before AII” value [6] of the same molecule?
**A.** Its value is 190 and 185.

**Q.** And the “% Inhibition” value [5]?
**A.** Its value is 67%.

**Q.** What about the “Average Change” value [5] of the same molecule?
**A.** The value was 12.5.

**Q.** What about the “Response After AII” value [7] of the same molecule?
**A.** The value was 195.

**Q.** What about the “Control Before AII” value [7] of the same molecule?
**A.** The value was 185.

**Q.** And the Change [8]?
**A.** Its Change is 20 and 10.

**Q.** What about the “Response After AII” value [8] of the same molecule?
**A.** The value was 205.

**Q.** And the “% Inhibition” value [7]?
**A.** Its value is 60%.

**Q.** And the “Average Change” value [7]?
**A.** Its value is 15.

**Q.** And the “Response After AII” value [9]?
**A.** Its value is 195.

**Q.** And the “Control Before AII” value [9]?
**A.** The value was 185.

**Q.** What about the Change [10] of the same molecule?
**A.** The Change was 10 and 20.

**Q.** What about the “Response After AII” value [10] of the same molecule?
**A.** The value was 205.

**Q.** What about the “% Inhibition” value [9] of the same molecule?
**A.** Its value is 60%.

**Q.** What about the “Average Change” value [9] of the same molecule?
**A.** The value was 15.

**Q.** What about the “Control Before AII” value [11] of the same molecule?
**A.** Its value is 185.

**Q.** What about the Change [12] of the same molecule?
**A.** The Change was 25 and 15.

**Q.** And the “Response After AII” value [12]?
**A.** Its value is 210 and 200.

**Q.** What about the “% Inhibition” value [11] of the same molecule?
**A.** The value was 47%.

**Q.** What about the “Average Change” value [11] of the same molecule?
**A.** The value was 20.

**Q.** And the “Control Before AII” value [13]?
**A.** The value was 185.

**Q.** And the Change [14]?
**A.** Its Change is 30 and 20.

**Q.** What about the “Response After AII” value [14] of the same molecule?
**A.** The value was 215 and 205.

**Q.** And the “% Inhibition” value [13]?
**A.** The value was 33%.

**Q.** And the “Average Change” value [13]?
**A.** Its value is 25.

**Q.** What about the “Response After AII” value [15] of the same molecule?
**A.** The value was 192.

**Q.** And the Change [16]?
**A.** Its Change is 2 and 0.

**Q.** And the “Response After AII” value [16]?
**A.** The value was 205.

**Q.** What about the “Control Before AII” value [16] of the same molecule?
**A.** Its value is 190 and 205.

**Q.** And the “% Inhibition” value [15]?
**A.** Its value is 98%.

**Q.** What about the “Average Change” value [15] of the same molecule?
**A.** The value was 1.

**Q.** What about the Change [17] of the same molecule?
**A.** The Change was 10.

**Q.** What about the “Response After AII” value [17] of the same molecule?
**A.** Its value is 205.

**Q.** What about the “Control Before AII” value [17] of the same molecule?
**A.** The value was 195.

**Q.** And the “% Inhibition” value [17]?
**A.** The value was 79%.

**Q.** And the “Average Change” value [17]?
**A.** Its value is 10.

**Q.** What about the “Response After AII” value [18] of the same molecule?
**A.** The value was 210.

**Q.** And the “Control Before AII” value [18]?
**A.** The value was 190.

**Q.** And the Change [19]?
**A.** The Change was 20 and 15.

**Q.** What about the “Response After AII” value [19] of the same molecule?
**A.** The value was 205.

**Q.** And the “% Inhibition” value [18]?
**A.** Its value is 63%.

**Q.** And the “Average Change” value [18]?
**A.** The value was 17.5.

**Q.** What about the “Response After AII” value [20] of the same molecule?
**A.** Its value is 200.

**Q.** And the “Control Before AII” value [20]?
**A.** Its value is 185.

**Q.** And the Change [21]?
**A.** The Change was 20 and 15.

**Q.** And the “Response After AII” value [21]?
**A.** The value was 205.

**Q.** And the “% Inhibition” value [20]?
**A.** The value was 63%.

**Q.** And the “Average Change” value [20]?
**A.** Its value is 17.5.

**Q.** And the Change [22]?
**A.** Its Change is 25.

**Q.** And the “Response After AII” value [22]?
**A.** The value was 210.

**Q.** And the “Control Before AII” value [22]?
**A.** The value was 185.

**Q.** What about the “% Inhibition” value [22] of the same molecule?
**A.** The value was 47%.

**Q.** And the “Average Change” value [22]?
**A.** The value was 25.

**Q.** What about the “Response After AII” value [23] of the same molecule?
**A.** Its value is 210.

**Q.** What about the “Control Before AII” value [23] of the same molecule?
**A.** Its value is 185.

**Q.** And the Change [24]?
**A.** The Change was 30 and 25.

**Q.** What about the “Response After AII” value [24] of the same molecule?
**A.** Its value is 205.

**Q.** And the “Control Before AII” value [24]?
**A.** The value was 175.

**Q.** And the “% Inhibition” value [23]?
**A.** Its value is 42%.

**Q.** What about the “Average Change” value [23] of the same molecule?
**A.** Its value is 27.5.

**Q.** What about the “Response After AII” value [25] of the same molecule?
**A.** Its value is 210.

**Q.** And the “Control Before AII” value [25]?
**A.** The value was 185.

**Q.** And the Change [26]?
**A.** Its Change is 25 and 30.

**Q.** What about the “Response After AII” value [26] of the same molecule?
**A.** Its value is 215.

**Q.** What about the “% Inhibition” value [25] of the same molecule?
**A.** The value was 42%.

**Q.** What about the “Average Change” value [25] of the same molecule?
**A.** The value was 27.5.
